Assay results: patent US9493426B2, “Quinazolinone derivatives useful as FGFR kinase modulators” (priority 2013, dated 2016)

Molecular target: T1, FGFR1 (Homo sapiens, UniProt P11362)
T1 construct: purchased DiscoveRx Corporation
Experiment: Enzyme binding assay (KINOMEscan) FGFR1
Conditions: FGFR1_pKd, pKd = -log Kd (M)
Procedure: (§1) Enzyme Binding Assays (KINOMEscan®)
(§2) Kinase enzyme binding affinities of compounds disclosed herein were determined using the KINOMEscan® technology performed by DiscoveRx Corporation, San Diego, Calif., USA (www.kinomescan.com).

T1 sequence (P11362 22-822): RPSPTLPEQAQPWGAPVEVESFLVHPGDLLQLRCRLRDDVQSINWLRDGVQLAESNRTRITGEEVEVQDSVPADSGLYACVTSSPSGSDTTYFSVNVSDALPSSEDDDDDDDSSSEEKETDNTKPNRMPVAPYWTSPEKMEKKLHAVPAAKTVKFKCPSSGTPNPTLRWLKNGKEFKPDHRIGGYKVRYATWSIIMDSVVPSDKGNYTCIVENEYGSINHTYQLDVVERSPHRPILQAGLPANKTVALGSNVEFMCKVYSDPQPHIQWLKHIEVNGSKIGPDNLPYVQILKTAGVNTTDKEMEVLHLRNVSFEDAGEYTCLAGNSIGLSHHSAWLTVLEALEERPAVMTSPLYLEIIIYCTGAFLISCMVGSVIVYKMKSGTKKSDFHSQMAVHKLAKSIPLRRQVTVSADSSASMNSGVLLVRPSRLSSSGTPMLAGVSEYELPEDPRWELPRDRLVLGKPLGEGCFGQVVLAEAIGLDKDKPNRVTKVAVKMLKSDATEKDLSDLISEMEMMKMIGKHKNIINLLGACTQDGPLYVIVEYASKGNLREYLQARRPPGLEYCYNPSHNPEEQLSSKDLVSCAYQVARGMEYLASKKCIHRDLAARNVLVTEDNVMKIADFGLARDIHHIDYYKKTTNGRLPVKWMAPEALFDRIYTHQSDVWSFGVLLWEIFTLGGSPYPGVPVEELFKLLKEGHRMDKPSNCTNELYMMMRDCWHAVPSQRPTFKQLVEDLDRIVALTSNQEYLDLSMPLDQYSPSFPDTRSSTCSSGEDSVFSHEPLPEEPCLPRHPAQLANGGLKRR

| Compound | Kd [M] |
| --- | --- |
| COc1cc(OC)cc(N(Cc2nccn2S(=O)(=O)N(C)C)c2ccc3ncn(C4CCOCC4)c(=O)c3c2)c1 [Compound 68] | 1.26e-06 |
| COc1cc(OC)c(F)c(N(CCCO)c2ccc3ncn(C4CCNCC4)c(=O)c3c2)c1F [Compound 53] | 5.01e-08 |
| COc1cc(OC)c(F)c(N(Cc2ncc[nH]2)c2ccc3ncn(C4CCOCC4)c(=O)c3c2)c1 [Compound 75] | 3.98e-08 |
| COc1cc(OC)cc(N(Cc2ncc[nH]2)c2ccc3ncn(C4CCOCC4)c(=O)c3c2)c1 [Compound 69] | 1.58e-07 |
| COc1cc(OC)cc(N(CCCO)c2ccc3ncn(C4CCNCC4)c(=O)c3c2)c1 [Compound 55] | > 3.16e-06 |
| COc1cc(OC)c(F)c(N(CCO)c2ccc3ncn(C4CCOCC4)c(=O)c3c2)c1 [Compound 63] | 3.98e-07 |
| COc1cc(OC)cc(N(Cc2ncc[nH]2)c2ccc3ncn(C4CCNCC4)c(=O)c3c2)c1 [Compound 44] | 3.98e-07 |
| CNCCN(c1cc(OC)cc(OC)c1)c1ccc2ncn(C3CCOCC3)c(=O)c2c1 [Compound 71] | 6.31e-07 |
| COc1cc(OC)cc(N(CCO)c2ccc3ncn(C4CCNCC4)c(=O)c3c2)c1 [Compound 47] | > 3.16e-06 |
| COc1cc(OC)cc(N(CCCNC(C)C)c2ccc3ncn(C4CCOCC4)c(=O)c3c2)c1 [Compound 73′] | 1.26e-07 |
| COc1cc(OC)c(F)c(N(Cc2nccn2S(=O)(=O)N(C)C)c2ccc3ncn(-c4ccncc4)c(=O)c3c2)c1F [Compound 40] | 3.98e-08 |
| COc1cc(OC)cc(N(CCO)c2ccc3ncn(C4CCOCC4)c(=O)c3c2)c1 [Compound 64] | 6.31e-07 |
| COc1cc(OC)cc(N(CCCO)c2ccc3ncn(C4CCOCC4)c(=O)c3c2)c1 [Compound 66] | 1.26e-06 |
| COc1cc(OC)c(F)c(N(CCCO)c2ccc3ncn(C4CCOCC4)c(=O)c3c2)c1 [Compound 65] | 2e-07 |
| CNCCN(c1ccc2ncn(C3CCOCC3)c(=O)c2c1)c1cc(OC)cc(OC)c1F [Compound 70] | 3.16e-08 |

Molecular target: T2, FGFR2 (Homo sapiens, UniProt P21802)
T2 construct: purchased DiscoveRx Corporation
Experiment: Enzyme binding assay (KINOMEscan) FGFR2
Conditions: pKd = -log Kd (M), read-out: FGFR2_pKd (converted)
Procedure: as §1, §2

T2 sequence (P21802 22-821): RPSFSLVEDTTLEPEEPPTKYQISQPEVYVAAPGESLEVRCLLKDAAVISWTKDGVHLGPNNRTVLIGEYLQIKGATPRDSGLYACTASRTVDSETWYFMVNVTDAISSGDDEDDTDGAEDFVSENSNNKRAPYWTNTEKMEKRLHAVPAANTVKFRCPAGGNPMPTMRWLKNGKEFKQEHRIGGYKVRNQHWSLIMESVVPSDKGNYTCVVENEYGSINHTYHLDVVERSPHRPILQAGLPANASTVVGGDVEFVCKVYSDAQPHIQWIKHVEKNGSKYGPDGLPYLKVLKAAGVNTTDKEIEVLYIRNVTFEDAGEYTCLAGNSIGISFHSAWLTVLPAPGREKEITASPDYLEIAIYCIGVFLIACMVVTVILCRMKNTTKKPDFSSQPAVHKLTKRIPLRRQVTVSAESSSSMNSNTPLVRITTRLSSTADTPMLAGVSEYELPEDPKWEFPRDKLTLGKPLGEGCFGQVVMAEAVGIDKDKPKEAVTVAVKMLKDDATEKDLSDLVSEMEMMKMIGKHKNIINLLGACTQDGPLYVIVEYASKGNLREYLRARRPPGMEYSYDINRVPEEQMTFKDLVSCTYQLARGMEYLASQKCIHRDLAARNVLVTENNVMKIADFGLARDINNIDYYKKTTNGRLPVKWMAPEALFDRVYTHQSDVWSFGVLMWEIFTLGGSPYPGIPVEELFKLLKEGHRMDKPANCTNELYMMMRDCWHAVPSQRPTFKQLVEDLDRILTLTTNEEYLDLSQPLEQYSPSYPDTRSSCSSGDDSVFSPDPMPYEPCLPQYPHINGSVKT

| Compound | Kd [M] |
| --- | --- |
| COc1cc(OC)c(F)c(N(CCCO)c2ccc3ncn(C4CCNCC4)c(=O)c3c2)c1F [Compound 53] | 3.16e-08 |
| COc1cc(OC)c(F)c(N(Cc2ncc[nH]2)c2ccc3ncn(C4CCOCC4)c(=O)c3c2)c1 [Compound 75] | 1e-08 |
| COc1cc(OC)cc(N(Cc2ncc[nH]2)c2ccc3ncn(C4CCOCC4)c(=O)c3c2)c1 [Compound 69] | 5.01e-08 |
| COc1cc(OC)cc(N(CCCO)c2ccc3ncn(C4CCNCC4)c(=O)c3c2)c1 [Compound 55] | 2.51e-06 |
| COc1cc(OC)c(F)c(N(CCO)c2ccc3ncn(C4CCOCC4)c(=O)c3c2)c1 [Compound 63] | 6.31e-08 |
| COc1cc(OC)cc(N(Cc2ncc[nH]2)c2ccc3ncn(C4CCNCC4)c(=O)c3c2)c1 [Compound 44] | 1.58e-07 |
| CNCCN(c1cc(OC)cc(OC)c1)c1ccc2ncn(C3CCOCC3)c(=O)c2c1 [Compound 71] | 3.98e-07 |
| COc1cc(OC)cc(N(CCO)c2ccc3ncn(C4CCNCC4)c(=O)c3c2)c1 [Compound 47] | > 3.16e-06 |
| COc1cc(OC)cc(N(CCCNC(C)C)c2ccc3ncn(C4CCOCC4)c(=O)c3c2)c1 [Compound 73′] | 6.31e-08 |
| COc1cc(OC)c(F)c(N(Cc2nccn2S(=O)(=O)N(C)C)c2ccc3ncn(-c4ccncc4)c(=O)c3c2)c1F [Compound 40] | 3.16e-08 |
| COc1cc(OC)cc(N(CCO)c2ccc3ncn(C4CCOCC4)c(=O)c3c2)c1 [Compound 64] | 3.98e-07 |
| COc1cc(OC)cc(N(CCCO)c2ccc3ncn(C4CCOCC4)c(=O)c3c2)c1 [Compound 66] | 5.01e-07 |
| COc1cc(OC)c(F)c(N(CCCO)c2ccc3ncn(C4CCOCC4)c(=O)c3c2)c1 [Compound 65] | 5.01e-08 |
| CNCCN(c1ccc2ncn(C3CCOCC3)c(=O)c2c1)c1cc(OC)cc(OC)c1F [Compound 70] | 3.98e-08 |

Molecular target: T3, FGFR3 (Homo sapiens, UniProt P22607)
T3 construct: purchased DiscoveRx Corporation
Experiment: Enzyme binding assay (KINOMEscan) FGFR3
Conditions: pKd = -log Kd (M), read-out: FGFR3_pKd (converted)
Procedure: as §1, §2

T3 sequence (P22607 23-806): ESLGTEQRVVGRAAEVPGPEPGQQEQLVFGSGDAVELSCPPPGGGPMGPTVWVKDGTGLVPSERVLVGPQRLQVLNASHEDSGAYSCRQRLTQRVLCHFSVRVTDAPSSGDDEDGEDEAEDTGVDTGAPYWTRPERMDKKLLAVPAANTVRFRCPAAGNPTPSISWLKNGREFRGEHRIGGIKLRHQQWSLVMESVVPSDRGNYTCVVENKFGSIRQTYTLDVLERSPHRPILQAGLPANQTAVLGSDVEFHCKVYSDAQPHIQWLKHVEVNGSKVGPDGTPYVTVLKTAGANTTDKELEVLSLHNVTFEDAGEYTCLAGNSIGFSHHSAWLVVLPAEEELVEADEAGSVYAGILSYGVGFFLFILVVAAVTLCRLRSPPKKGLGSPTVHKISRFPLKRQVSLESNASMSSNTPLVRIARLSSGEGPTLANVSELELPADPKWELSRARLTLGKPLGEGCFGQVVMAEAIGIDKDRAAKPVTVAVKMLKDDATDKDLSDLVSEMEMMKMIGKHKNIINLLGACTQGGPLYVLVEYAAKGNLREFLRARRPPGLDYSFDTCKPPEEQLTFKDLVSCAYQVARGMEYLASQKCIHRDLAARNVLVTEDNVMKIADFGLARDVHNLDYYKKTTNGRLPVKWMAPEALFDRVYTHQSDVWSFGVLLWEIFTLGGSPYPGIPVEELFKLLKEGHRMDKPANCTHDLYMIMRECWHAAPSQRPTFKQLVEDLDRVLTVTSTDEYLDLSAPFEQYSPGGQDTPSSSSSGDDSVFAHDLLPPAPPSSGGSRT

| Compound | Kd [M] |
| --- | --- |
| COc1cc(OC)cc(N(Cc2nccn2S(=O)(=O)N(C)C)c2ccc3ncn(C4CCOCC4)c(=O)c3c2)c1 [Compound 68] | > 3.16e-06 |
| COc1cc(OC)c(F)c(N(CCCO)c2ccc3ncn(C4CCNCC4)c(=O)c3c2)c1F [Compound 53] | 6.31e-08 |
| COc1cc(OC)c(F)c(N(Cc2ncc[nH]2)c2ccc3ncn(C4CCOCC4)c(=O)c3c2)c1 [Compound 75] | 1.58e-08 |
| COc1cc(OC)cc(N(Cc2ncc[nH]2)c2ccc3ncn(C4CCOCC4)c(=O)c3c2)c1 [Compound 69] | 1.58e-07 |
| COc1cc(OC)cc(N(CCCO)c2ccc3ncn(C4CCNCC4)c(=O)c3c2)c1 [Compound 55] | 2.51e-06 |
| COc1cc(OC)c(F)c(N(CCO)c2ccc3ncn(C4CCOCC4)c(=O)c3c2)c1 [Compound 63] | 1.26e-07 |
| COc1cc(OC)cc(N(Cc2ncc[nH]2)c2ccc3ncn(C4CCNCC4)c(=O)c3c2)c1 [Compound 44] | 3.98e-07 |
| CNCCN(c1cc(OC)cc(OC)c1)c1ccc2ncn(C3CCOCC3)c(=O)c2c1 [Compound 71] | 1.26e-06 |
| COc1cc(OC)cc(N(CCO)c2ccc3ncn(C4CCNCC4)c(=O)c3c2)c1 [Compound 47] | > 3.16e-06 |
| COc1cc(OC)cc(N(CCCNC(C)C)c2ccc3ncn(C4CCOCC4)c(=O)c3c2)c1 [Compound 73′] | 2e-07 |
| COc1cc(OC)c(F)c(N(Cc2nccn2S(=O)(=O)N(C)C)c2ccc3ncn(-c4ccncc4)c(=O)c3c2)c1F [Compound 40] | 6.31e-08 |
| COc1cc(OC)cc(N(CCCO)c2ccc3ncn(C4CCOCC4)c(=O)c3c2)c1 [Compound 66] | 1.26e-06 |
| COc1cc(OC)c(F)c(N(CCCO)c2ccc3ncn(C4CCOCC4)c(=O)c3c2)c1 [Compound 65] | 7.94e-08 |
| CNCCN(c1ccc2ncn(C3CCOCC3)c(=O)c2c1)c1cc(OC)cc(OC)c1F [Compound 70] | 7.94e-08 |

Molecular target: T4, FGFR4 (Homo sapiens, UniProt P22455)
T4 construct: purchased DiscoveRx Corporation
Experiment: Enzyme binding assay (KINOMEscan) FGFR4
Conditions: pKd = -log Kd (M), read-out: FGFR4_pKd (converted)
Procedure: as §1, §2

T4 sequence (P22455 22-802): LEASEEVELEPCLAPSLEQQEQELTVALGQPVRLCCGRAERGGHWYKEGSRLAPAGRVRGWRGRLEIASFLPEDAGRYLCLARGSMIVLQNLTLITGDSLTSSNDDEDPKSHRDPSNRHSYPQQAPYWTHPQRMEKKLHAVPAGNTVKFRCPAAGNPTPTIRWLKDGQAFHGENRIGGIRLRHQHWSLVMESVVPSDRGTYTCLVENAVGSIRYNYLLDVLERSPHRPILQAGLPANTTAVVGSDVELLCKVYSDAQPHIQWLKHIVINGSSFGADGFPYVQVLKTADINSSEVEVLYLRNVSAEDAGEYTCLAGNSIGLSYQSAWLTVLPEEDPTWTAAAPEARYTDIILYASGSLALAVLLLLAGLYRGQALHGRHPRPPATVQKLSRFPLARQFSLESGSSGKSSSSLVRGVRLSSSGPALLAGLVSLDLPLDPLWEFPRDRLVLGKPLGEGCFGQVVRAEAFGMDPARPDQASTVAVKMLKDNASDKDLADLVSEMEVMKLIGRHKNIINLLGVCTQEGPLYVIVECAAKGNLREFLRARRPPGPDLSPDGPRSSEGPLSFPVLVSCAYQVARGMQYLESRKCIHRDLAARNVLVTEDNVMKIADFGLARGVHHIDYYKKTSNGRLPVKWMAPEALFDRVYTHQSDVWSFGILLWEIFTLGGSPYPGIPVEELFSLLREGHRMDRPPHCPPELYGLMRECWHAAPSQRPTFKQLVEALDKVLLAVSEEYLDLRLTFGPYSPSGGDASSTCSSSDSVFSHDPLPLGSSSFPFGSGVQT

| Compound | Kd [M] |
| --- | --- |
| COc1cc(OC)cc(N(Cc2nccn2S(=O)(=O)N(C)C)c2ccc3ncn(C4CCOCC4)c(=O)c3c2)c1 [Compound 68] | > 3.16e-06 |
| COc1cc(OC)c(F)c(N(CCCO)c2ccc3ncn(C4CCNCC4)c(=O)c3c2)c1F [Compound 53] | 2e-07 |
| COc1cc(OC)c(F)c(N(Cc2ncc[nH]2)c2ccc3ncn(C4CCOCC4)c(=O)c3c2)c1 [Compound 75] | 2e-07 |
| COc1cc(OC)cc(N(CCCO)c2ccc3ncn(C4CCNCC4)c(=O)c3c2)c1 [Compound 55] | > 3.16e-06 |
| COc1cc(OC)c(F)c(N(CCO)c2ccc3ncn(C4CCOCC4)c(=O)c3c2)c1 [Compound 63] | 1.58e-06 |
| COc1cc(OC)cc(N(Cc2ncc[nH]2)c2ccc3ncn(C4CCNCC4)c(=O)c3c2)c1 [Compound 44] | > 3.16e-06 |
| CNCCN(c1cc(OC)cc(OC)c1)c1ccc2ncn(C3CCOCC3)c(=O)c2c1 [Compound 71] | > 3.16e-06 |
| COc1cc(OC)cc(N(CCO)c2ccc3ncn(C4CCNCC4)c(=O)c3c2)c1 [Compound 47] | > 3.16e-06 |
| COc1cc(OC)cc(N(CCCNC(C)C)c2ccc3ncn(C4CCOCC4)c(=O)c3c2)c1 [Compound 73′] | 1.26e-06 |
| COc1cc(OC)c(F)c(N(Cc2nccn2S(=O)(=O)N(C)C)c2ccc3ncn(-c4ccncc4)c(=O)c3c2)c1F [Compound 40] | 2.51e-07 |
| COc1cc(OC)cc(N(CCO)c2ccc3ncn(C4CCOCC4)c(=O)c3c2)c1 [Compound 64] | > 3.16e-06 |
| COc1cc(OC)cc(N(CCCO)c2ccc3ncn(C4CCOCC4)c(=O)c3c2)c1 [Compound 66] | > 3.16e-06 |
| CNCCN(c1ccc2ncn(C3CCOCC3)c(=O)c2c1)c1cc(OC)cc(OC)c1F [Compound 70] | 1e-07 |

Molecular target: T5, VEGFR2 (Homo sapiens, UniProt P35968)
T5 construct: purchased DiscoveRx Corporation
Experiment: Enzyme binding assay (KINOMEscan) VEGFR2
Conditions: pKd = -log Kd (M), read-out: VEGFR2_pKd (converted)
Procedure: as §1, §2

T5 sequence (P35968 20-1356): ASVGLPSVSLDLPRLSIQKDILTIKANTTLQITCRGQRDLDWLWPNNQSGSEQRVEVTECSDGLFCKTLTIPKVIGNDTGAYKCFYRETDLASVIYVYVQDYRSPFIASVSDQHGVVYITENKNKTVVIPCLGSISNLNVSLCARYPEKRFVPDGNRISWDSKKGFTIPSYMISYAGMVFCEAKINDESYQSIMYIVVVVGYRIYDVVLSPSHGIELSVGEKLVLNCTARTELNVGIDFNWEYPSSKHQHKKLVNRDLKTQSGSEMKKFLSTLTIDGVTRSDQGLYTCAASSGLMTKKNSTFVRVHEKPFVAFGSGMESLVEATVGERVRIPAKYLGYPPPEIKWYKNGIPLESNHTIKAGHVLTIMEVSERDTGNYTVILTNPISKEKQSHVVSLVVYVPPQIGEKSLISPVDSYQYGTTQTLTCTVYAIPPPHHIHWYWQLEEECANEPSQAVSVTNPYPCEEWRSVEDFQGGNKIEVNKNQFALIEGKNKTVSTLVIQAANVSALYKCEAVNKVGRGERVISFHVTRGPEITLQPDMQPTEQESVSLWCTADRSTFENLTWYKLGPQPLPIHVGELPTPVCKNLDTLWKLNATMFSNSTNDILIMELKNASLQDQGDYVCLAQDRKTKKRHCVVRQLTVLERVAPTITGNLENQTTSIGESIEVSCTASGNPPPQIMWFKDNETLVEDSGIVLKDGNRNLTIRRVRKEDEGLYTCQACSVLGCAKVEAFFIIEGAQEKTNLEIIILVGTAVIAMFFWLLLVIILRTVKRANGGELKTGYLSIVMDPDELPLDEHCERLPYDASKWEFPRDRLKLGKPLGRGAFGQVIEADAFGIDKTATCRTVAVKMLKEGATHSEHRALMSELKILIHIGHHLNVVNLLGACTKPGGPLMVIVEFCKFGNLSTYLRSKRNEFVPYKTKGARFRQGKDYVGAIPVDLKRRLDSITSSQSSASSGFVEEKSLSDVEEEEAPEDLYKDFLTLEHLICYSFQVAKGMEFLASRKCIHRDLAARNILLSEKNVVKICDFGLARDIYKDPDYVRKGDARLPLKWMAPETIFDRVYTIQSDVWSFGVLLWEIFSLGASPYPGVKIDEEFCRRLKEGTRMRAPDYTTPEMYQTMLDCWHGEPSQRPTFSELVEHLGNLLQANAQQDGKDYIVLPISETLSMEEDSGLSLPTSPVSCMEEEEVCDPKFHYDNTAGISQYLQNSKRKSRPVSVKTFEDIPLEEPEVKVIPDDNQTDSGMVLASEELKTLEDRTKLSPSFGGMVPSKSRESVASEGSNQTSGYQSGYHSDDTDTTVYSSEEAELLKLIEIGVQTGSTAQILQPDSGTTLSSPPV

| Compound | Kd [M] |
| --- | --- |
| COc1cc(OC)cc(N(Cc2nccn2S(=O)(=O)N(C)C)c2ccc3ncn(C4CCOCC4)c(=O)c3c2)c1 [Compound 68] | > 3.16e-06 |
| COc1cc(OC)c(F)c(N(CCCO)c2ccc3ncn(C4CCNCC4)c(=O)c3c2)c1F [Compound 53] | > 3.16e-06 |
| COc1cc(OC)c(F)c(N(Cc2ncc[nH]2)c2ccc3ncn(C4CCOCC4)c(=O)c3c2)c1 [Compound 75] | > 3.16e-06 |
| COc1cc(OC)cc(N(Cc2ncc[nH]2)c2ccc3ncn(C4CCOCC4)c(=O)c3c2)c1 [Compound 69] | > 3.16e-06 |
| COc1cc(OC)cc(N(CCCO)c2ccc3ncn(C4CCNCC4)c(=O)c3c2)c1 [Compound 55] | > 3.16e-06 |
| COc1cc(OC)c(F)c(N(CCO)c2ccc3ncn(C4CCOCC4)c(=O)c3c2)c1 [Compound 63] | > 3.16e-06 |
| COc1cc(OC)cc(N(Cc2ncc[nH]2)c2ccc3ncn(C4CCNCC4)c(=O)c3c2)c1 [Compound 44] | > 3.16e-06 |
| CNCCN(c1cc(OC)cc(OC)c1)c1ccc2ncn(C3CCOCC3)c(=O)c2c1 [Compound 71] | > 3.16e-06 |
| COc1cc(OC)cc(N(CCO)c2ccc3ncn(C4CCNCC4)c(=O)c3c2)c1 [Compound 47] | > 3.16e-06 |
| COc1cc(OC)c(F)c(N(Cc2nccn2S(=O)(=O)N(C)C)c2ccc3ncn(-c4ccncc4)c(=O)c3c2)c1F [Compound 40] | 1.58e-06 |
| COc1cc(OC)cc(N(CCO)c2ccc3ncn(C4CCOCC4)c(=O)c3c2)c1 [Compound 64] | > 3.16e-06 |
| COc1cc(OC)cc(N(CCCO)c2ccc3ncn(C4CCOCC4)c(=O)c3c2)c1 [Compound 66] | > 3.16e-06 |
| COc1cc(OC)c(F)c(N(CCCO)c2ccc3ncn(C4CCOCC4)c(=O)c3c2)c1 [Compound 65] | > 3.16e-06 |
| CNCCN(c1ccc2ncn(C3CCOCC3)c(=O)c2c1)c1cc(OC)cc(OC)c1F [Compound 70] | > 3.16e-06 |

System: not given
Experiment: not given
Conditions: not given

| Compound | melting point [°C] |
| --- | --- |
| COc1cc(OC)c(F)c(N(CCCO)c2ccc3ncn(C4CCNCC4)c(=O)c3c2)c1F [Compound 53] | 184 |
| COc1cc(OC)c(F)c(N(Cc2ncc[nH]2)c2ccc3ncn(C4CCOCC4)c(=O)c3c2)c1 [Compound 75] | > 260 |
| COc1cc(OC)cc(N(Cc2ncc[nH]2)c2ccc3ncn(C4CCOCC4)c(=O)c3c2)c1 [Compound 69] | 260 |
| COc1cc(OC)cc(N(CCCO)c2ccc3ncn(C4CCNCC4)c(=O)c3c2)c1 [Compound 55] | 167 |
| COc1cc(OC)c(F)c(N(CCO)c2ccc3ncn(C4CCOCC4)c(=O)c3c2)c1 [Compound 63] | 191 |
| COc1cc(OC)cc(N(Cc2ncc[nH]2)c2ccc3ncn(C4CCNCC4)c(=O)c3c2)c1 [Compound 44] | 220 |
| CNCCN(c1cc(OC)cc(OC)c1)c1ccc2ncn(C3CCOCC3)c(=O)c2c1 [Compound 71] | 135 |
| COc1cc(OC)cc(N(CCO)c2ccc3ncn(C4CCNCC4)c(=O)c3c2)c1 [Compound 47] | 165 |
| COc1cc(OC)c(F)c(N(Cc2nccn2S(=O)(=O)N(C)C)c2ccc3ncn(-c4ccncc4)c(=O)c3c2)c1F [Compound 40] | 139 |
| COc1cc(OC)cc(N(CCO)c2ccc3ncn(C4CCOCC4)c(=O)c3c2)c1 [Compound 64] | 204 |
| COc1cc(OC)c(F)c(N(CCCO)c2ccc3ncn(C4CCOCC4)c(=O)c3c2)c1 [Compound 65] | 164 |
| CNCCN(c1ccc2ncn(C3CCOCC3)c(=O)c2c1)c1cc(OC)cc(OC)c1F [Compound 70] | 178 |
